Drawing on ChEMBL document CHEMBL2007661, “Compounds: GSK PKIS; Assays: UNC Frye lab” (2012), this text covers inhibition for 16 compounds.

A word on the inhibition: it is the relative decrease from the control value, in per cent.

Values joined by “and” are separate entries in the source; they are usually repeats but may differ in a detail not shown here. Identical values can stand only once.

For experiment [1], the target named is T1, Tyrosine-protein kinase Mer (Homo sapiens) (UniProt Q12866).
T1 sequence (whole entry): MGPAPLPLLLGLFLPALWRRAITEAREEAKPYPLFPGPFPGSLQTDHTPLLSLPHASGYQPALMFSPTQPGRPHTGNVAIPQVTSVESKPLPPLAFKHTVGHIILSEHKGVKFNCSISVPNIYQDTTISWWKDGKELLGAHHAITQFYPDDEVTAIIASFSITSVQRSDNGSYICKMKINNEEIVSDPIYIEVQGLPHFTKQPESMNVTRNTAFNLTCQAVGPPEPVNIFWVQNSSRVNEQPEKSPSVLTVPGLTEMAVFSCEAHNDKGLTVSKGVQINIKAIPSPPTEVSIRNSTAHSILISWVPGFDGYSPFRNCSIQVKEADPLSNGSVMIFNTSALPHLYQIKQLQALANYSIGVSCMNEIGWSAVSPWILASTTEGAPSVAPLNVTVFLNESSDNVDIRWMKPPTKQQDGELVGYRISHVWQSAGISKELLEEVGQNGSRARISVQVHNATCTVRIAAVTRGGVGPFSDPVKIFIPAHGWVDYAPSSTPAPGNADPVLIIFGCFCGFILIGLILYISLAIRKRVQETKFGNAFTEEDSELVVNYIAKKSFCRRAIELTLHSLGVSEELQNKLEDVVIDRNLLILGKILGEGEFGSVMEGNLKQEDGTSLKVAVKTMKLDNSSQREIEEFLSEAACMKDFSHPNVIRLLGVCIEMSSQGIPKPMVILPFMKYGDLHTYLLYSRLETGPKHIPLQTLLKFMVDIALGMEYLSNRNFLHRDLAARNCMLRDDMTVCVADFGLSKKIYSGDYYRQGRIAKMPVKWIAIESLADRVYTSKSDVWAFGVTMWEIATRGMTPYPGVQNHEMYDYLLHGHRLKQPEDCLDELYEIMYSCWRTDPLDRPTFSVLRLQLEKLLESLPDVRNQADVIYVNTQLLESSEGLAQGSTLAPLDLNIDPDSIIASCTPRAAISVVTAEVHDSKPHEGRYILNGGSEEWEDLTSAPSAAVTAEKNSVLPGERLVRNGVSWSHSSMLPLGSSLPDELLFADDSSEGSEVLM
Conditions: at 10 µM.

Experiment [2] deals with T2, Inhibitor of nuclear factor kappa-B kinase subunit alpha (Homo sapiens) (UniProt O15111).
T2 sequence (whole entry): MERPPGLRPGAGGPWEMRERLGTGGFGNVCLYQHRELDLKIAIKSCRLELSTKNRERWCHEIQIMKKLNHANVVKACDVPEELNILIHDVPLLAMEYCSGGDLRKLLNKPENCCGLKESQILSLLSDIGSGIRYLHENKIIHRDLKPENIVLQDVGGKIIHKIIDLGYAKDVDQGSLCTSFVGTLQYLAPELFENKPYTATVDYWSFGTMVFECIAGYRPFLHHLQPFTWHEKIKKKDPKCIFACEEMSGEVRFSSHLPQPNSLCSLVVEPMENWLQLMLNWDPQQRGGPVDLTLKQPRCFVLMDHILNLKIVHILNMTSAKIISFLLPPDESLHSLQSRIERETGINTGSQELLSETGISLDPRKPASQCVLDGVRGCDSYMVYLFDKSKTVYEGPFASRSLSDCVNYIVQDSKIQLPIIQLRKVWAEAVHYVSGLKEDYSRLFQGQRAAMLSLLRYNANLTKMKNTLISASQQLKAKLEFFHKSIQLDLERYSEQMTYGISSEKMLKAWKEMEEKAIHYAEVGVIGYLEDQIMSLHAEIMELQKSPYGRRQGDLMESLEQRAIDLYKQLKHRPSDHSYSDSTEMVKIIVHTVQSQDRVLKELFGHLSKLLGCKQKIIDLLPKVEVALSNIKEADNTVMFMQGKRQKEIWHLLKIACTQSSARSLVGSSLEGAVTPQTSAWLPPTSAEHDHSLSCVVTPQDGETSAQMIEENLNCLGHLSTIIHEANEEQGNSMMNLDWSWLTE
Conditions: at 1 µM.

Experiment [3] has as its target T3, Inhibitor of nuclear factor kappa-B kinase subunit epsilon (Homo sapiens) (UniProt Q14164).
T3 sequence (whole entry): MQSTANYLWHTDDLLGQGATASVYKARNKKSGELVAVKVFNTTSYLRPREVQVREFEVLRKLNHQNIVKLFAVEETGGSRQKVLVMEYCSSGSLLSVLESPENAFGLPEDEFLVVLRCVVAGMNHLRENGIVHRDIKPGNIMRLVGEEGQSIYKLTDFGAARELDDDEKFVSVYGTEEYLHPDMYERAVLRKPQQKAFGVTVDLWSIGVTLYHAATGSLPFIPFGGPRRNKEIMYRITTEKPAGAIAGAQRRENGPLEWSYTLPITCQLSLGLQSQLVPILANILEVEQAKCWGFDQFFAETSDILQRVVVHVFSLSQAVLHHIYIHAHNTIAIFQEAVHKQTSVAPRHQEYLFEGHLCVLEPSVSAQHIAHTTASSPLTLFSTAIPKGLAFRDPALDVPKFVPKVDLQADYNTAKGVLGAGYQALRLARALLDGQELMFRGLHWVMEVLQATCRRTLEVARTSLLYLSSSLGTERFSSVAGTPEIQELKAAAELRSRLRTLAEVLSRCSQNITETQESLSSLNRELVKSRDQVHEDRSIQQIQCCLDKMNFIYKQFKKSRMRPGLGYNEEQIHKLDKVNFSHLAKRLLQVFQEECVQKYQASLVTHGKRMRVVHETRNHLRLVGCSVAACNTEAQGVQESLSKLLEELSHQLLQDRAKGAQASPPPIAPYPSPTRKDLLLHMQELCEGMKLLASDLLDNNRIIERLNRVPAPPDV
Conditions: at 1 µM.

Turning to `CC(C)(CO)CNC(=O)c1ccc2c(c1)/C(=N/Nc1ccc(S(N)(=O)=O)cc1)C(=O)N2`, the inhibition in experiment [1] is 9%; in experiment [2] it was -7% and 1%; in experiment [3], 77% and 76%.

As to `Fc1cccc(COc2ccc(Nc3ncncc3C#Cc3ccccc3)cc2Cl)c1`, the inhibition is -5% in experiment [1]; 2% and 5% in experiment [2]; -4% and 0% in experiment [3].

With `COc1cccc(-n2ncc3c(N/N=C/c4cccc(F)c4)ncnc32)c1`, the inhibition in experiment [1] is -3%; in experiment [2], 1% and 0%; in experiment [3] it was -1% and 0%.

Regarding `COc1cc2ncn(-c3cc(OCc4ccccc4C(F)(F)F)c(C(=O)N(C)C)s3)c2cc1OC`, the inhibition in experiment [1] is -10%; in experiment [2] it was 1% and 0%; in experiment [3], -1%.

As to `NC(=O)c1ccc(-c2nc(-c3ccccn3)c(-c3ccc4c(c3)OCO4)[nH]2)cc1`, the inhibition in experiment [1] was 1%; in experiment [2], -3%; in experiment [3] it was -1% and -3%.

Turning to `Cc1cc(O)cc(C)c1/C=C/c1cncc(C(=O)N(C)C)c1`, the inhibition was -4% in experiment [1]; -8% and -5% in experiment [2]; 3% and 1% in experiment [3].

In the case of `CC(C)COC(=O)c1ccc2c(c1)/C(=C/Nc1ccc(S(N)(=O)=O)cc1)C(=O)N2`, the inhibition is 0% in experiment [1]; -4% and -9% in experiment [2]; 94% in experiment [3].

Take `CCn1cc(-c2ccnc3[nH]ccc23)c(-c2cccc(NC(=O)Nc3ccc(OCc4ccccc4)cc3)c2)n1`: the inhibition was -1% in experiment [1]; -3% in experiment [2]; 0% and 1% in experiment [3].

As for `COc1cc2c(cc1Nc1nc(N3CCc4ccccc43)c3cc[nH]c3n1)N(C(=O)CN(C)C)CC2`, the inhibition in experiment [1] was 3%; in experiment [2], 3%; in experiment [3] it was 21% and 19%.

In the case of `O=C1NC(=O)C(c2ccc(Cl)cc2)=C1Nc1ccc(Cl)c(C(=O)O)c1`, the inhibition in experiment [1] was 62%; in experiment [2], 3%; in experiment [3], 1% and 2%.

For the compound `CCCN(CCS(C)(=O)=O)Cc1ccc(-c2ccc3ncnc(Nc4ccc(OCc5cccc(F)c5)c(Cl)c4)c3c2)o1`, the inhibition in experiment [1] was -3%; in experiment [2], 2% and -1%; in experiment [3] it was 1% and 3%.

Take `COc1cc(N2CCN(C(C)C)CC2)ccc1Nc1nc(Nc2cccc3ncccc23)c2cc[nH]c2n1`: the inhibition is -5% in experiment [1]; 2% and 9% in experiment [2]; 2% and 0% in experiment [3].

As to `CCn1c(-c2nonc2N)nc2c(C#CC(C)(C)O)nc(OCCNC)cc21`, the inhibition was -6% in experiment [1]; 6% and 5% in experiment [2]; 44% and 46% in experiment [3].

`C[C@@H](Oc1cc(-n2cnc3ccc(OCC4CCN(C)CC4)cc32)sc1C(N)=O)c1ccccc1C(F)(F)F`: the inhibition in experiment [1] is 5%; in experiment [2] it was 3%; in experiment [3], 2% and 4%.

Regarding `COc1cccc(-n2ncc3c(N/N=C/c4ccc(F)cc4)ncnc32)c1`, the inhibition in experiment [1] is -2%; in experiment [2], 5% and 3%; in experiment [3] it was 1% and 0%.

As to `COC(=O)Nc1nc2ccc(S(=O)(=O)c3ccc(NC(=O)Nc4cc(C(F)(F)F)ccc4F)cc3)cc2[nH]1`, the inhibition in experiment [1] is 0%; in experiment [2], 2% and 3%; in experiment [3], -1% and -2%.
